From paper PMC8406809 (Antimicrobial Agents and Chemotherapy, 2021)

Key:
Huh7.5 cells = format: cell-based, human; details: higher concentrations marked # in Fig. 4A
[1] = tested on: original-SARS2 (P2VeroE6 virus, SARS-CoV-2_DK-AHH1); test: microbe, parasite or virus in culture; format: cell-based

Which cytotoxicity (Huh7.5 cells) does the source give for `COc1c(NC(=O)C(=O)c2ccc(OCCN3CCOCC3)c3ccccc23)cc(C(C)(C)C)cc1NS(C)(=O)=O` [ITX5061] here?
Its cytotoxicity is “cytotoxic”.

With `CCC(CC)COC(=O)[C@H](C)N[P@](=O)(OC[C@H]1O[C@@](C#N)(c2ccc3c(N)ncnn23)[C@H](O)[C@@H]1O)Oc1ccccc1` [Remdesivir] as the compound, how does the “fold-higher activity in Huh7.5 cells than in Vero E6 cells” value [1] read?
The value was about 50 fold.

And the EC50 ([1]; Severe acute respiratory syndrome coronavirus 2, Huh7.5)?
Its EC50 is 30 nM.
